Entries after “also recorded” stand apart in the source; their conditions may differ.
Experiments:
EEF2K = EEF2K (Homo sapiens, UniProt O00418); experiment: Kinase profiling (SelectScreen), ZLYTE; type: biochemical
Procedure: (§1) Kinase profiling was conducted by the SelectScreen Kinase Profiling Services (Thermo Fisher), using Z′-LYTE, Adapta, or LanthaScreen Eu Kinase Binding Assay for different kinases. The kinome phylogenetic tree was generated using the KinMap web portal.

SRC = SRC (Homo sapiens, UniProt P12931); experiment: Kinase profiling (SelectScreen), ZLYTE; type: biochemical
Procedure: as §1

AURKA (Aurora A) = AURKA (Aurora A) (Homo sapiens, UniProt O14965); experiment: Kinase profiling (SelectScreen), ZLYTE; type: biochemical
Procedure: as §1

AMPK A1/B1/G1 = AMPK A1/B1/G1 (Homo sapiens, UniProt Q13131); experiment: Kinase profiling (SelectScreen), ZLYTE; type: biochemical
Procedure: as §1

IKBKE (IKK epsilon) = IKBKE (IKK epsilon) (Homo sapiens, UniProt Q14164); experiment: Kinase profiling (SelectScreen), ZLYTE; type: biochemical
Procedure: as §1

TEK (Tie2) = TEK (Tie2) (Homo sapiens, UniProt Q02763); experiment: Kinase profiling (SelectScreen), ZLYTE; type: biochemical
TEK (Tie2), sequence (Q02763 23-1124): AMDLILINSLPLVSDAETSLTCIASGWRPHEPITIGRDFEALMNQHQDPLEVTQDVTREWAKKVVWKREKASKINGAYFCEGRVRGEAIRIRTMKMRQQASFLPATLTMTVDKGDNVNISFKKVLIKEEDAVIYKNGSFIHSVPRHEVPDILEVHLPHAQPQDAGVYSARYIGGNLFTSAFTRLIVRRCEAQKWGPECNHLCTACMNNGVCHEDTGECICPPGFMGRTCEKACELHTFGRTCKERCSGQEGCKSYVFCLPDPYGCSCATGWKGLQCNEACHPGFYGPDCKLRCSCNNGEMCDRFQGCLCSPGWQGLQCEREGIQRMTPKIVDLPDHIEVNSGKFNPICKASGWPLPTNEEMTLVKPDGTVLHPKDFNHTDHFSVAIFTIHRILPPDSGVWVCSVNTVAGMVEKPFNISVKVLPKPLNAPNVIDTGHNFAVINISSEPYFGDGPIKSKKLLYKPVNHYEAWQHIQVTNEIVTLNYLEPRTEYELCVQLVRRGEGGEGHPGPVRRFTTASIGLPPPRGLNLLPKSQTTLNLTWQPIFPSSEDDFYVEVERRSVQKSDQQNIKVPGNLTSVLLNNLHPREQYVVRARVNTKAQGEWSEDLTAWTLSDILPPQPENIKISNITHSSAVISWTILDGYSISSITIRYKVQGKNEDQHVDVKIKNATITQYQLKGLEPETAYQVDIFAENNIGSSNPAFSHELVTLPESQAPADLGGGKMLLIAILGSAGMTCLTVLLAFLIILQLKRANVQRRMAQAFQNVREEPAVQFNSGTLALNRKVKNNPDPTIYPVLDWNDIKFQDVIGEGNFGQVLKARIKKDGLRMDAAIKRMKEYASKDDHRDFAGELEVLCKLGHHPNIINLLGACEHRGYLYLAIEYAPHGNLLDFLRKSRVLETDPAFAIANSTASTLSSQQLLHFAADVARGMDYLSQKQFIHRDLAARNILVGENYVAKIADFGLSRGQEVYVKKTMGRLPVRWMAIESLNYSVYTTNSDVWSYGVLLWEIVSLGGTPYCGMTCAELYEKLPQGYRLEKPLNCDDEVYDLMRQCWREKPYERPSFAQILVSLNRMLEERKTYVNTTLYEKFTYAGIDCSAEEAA
Procedure: as §1

MAP2K1 (MEK1) = MAP2K1 (MEK1) (Homo sapiens, UniProt Q02750); experiment: Kinase profiling (SelectScreen), ZLYTE; type: biochemical; details: IA107 at 5 μM; ATP 100 μM
Procedure: as §1

BTK = BTK (Homo sapiens, UniProt Q06187); experiment: Kinase profiling (SelectScreen), ZLYTE; type: biochemical
Procedure: as §1

CDK1/cyclin B = CDK1/cyclin B (Homo sapiens, UniProt P06493); experiment: Kinase profiling (SelectScreen), ZLYTE; type: biochemical
Procedure: as §1

CSNK1G2 (CK1 gamma 2) = CSNK1G2 (CK1 gamma 2) (Homo sapiens, UniProt P78368); experiment: Kinase profiling (SelectScreen), ZLYTE; type: biochemical
Procedure: as §1

MAP2K6 (MKK6) = MAP2K6 (MKK6) (Homo sapiens, UniProt P52564); experiment: Kinase profiling (SelectScreen), ZLYTE; type: biochemical; details: IA107 at 5 μM; ATP 100 μM
Procedure: as §1

FRAP1 (mTOR) = FRAP1 (mTOR) (Homo sapiens, UniProt P42345); experiment: Kinase profiling (SelectScreen), ZLYTE; type: biochemical
Procedure: as §1

EGFR (ErbB1) = EGFR (ErbB1) (Homo sapiens, UniProt P00533); experiment: Kinase profiling (SelectScreen), ZLYTE; type: biochemical
Procedure: as §1

PRKD1 (PKC mu) = PRKD1 (PKC mu) (Homo sapiens, UniProt Q15139); experiment: Kinase profiling (SelectScreen), ZLYTE; type: biochemical
Procedure: as §1

SGKL (SGK3) = SGKL (SGK3) (Homo sapiens, UniProt Q96BR1); experiment: Kinase profiling (SelectScreen), ZLYTE; type: biochemical
Procedure: as §1

EPHB4 = EPHB4 (Homo sapiens, UniProt P54760); experiment: Kinase profiling (SelectScreen), ZLYTE; type: biochemical
EPHB4, sequence (P54760 16-987): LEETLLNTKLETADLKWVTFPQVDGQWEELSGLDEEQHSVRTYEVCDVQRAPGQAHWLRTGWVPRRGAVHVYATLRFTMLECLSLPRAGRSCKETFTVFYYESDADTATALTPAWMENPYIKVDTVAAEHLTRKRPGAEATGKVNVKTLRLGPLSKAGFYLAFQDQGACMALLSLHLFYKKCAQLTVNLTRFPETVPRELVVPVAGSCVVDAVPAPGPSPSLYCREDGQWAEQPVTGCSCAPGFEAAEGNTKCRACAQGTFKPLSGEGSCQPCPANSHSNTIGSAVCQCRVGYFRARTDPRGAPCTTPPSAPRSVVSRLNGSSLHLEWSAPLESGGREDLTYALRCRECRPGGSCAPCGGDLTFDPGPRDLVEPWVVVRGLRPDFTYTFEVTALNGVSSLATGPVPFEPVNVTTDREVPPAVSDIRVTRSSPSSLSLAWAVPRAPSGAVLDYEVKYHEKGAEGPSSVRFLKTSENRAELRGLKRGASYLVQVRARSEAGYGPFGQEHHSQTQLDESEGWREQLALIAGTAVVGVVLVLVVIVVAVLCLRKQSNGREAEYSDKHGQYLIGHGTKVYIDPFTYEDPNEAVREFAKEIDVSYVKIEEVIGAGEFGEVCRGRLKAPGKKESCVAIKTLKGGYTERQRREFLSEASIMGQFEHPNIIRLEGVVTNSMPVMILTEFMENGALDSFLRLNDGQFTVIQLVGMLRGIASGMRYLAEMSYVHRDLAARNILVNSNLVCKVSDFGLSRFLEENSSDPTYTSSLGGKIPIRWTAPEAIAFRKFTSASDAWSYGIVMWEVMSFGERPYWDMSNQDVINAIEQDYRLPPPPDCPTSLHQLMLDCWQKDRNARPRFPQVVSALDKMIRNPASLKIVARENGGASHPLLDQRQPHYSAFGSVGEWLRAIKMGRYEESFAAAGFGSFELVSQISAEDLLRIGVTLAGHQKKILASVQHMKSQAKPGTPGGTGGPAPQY
Procedure: as §1

LCK = LCK (Homo sapiens, UniProt P06239); experiment: Kinase profiling (SelectScreen), ZLYTE; type: biochemical
Procedure: as §1

RPS6KB1 (p70S6K) = RPS6KB1 (p70S6K) (Homo sapiens, UniProt P23443); experiment: Kinase profiling (SelectScreen), ZLYTE; type: biochemical
RPS6KB1 (p70S6K), sequence (P23443 whole entry): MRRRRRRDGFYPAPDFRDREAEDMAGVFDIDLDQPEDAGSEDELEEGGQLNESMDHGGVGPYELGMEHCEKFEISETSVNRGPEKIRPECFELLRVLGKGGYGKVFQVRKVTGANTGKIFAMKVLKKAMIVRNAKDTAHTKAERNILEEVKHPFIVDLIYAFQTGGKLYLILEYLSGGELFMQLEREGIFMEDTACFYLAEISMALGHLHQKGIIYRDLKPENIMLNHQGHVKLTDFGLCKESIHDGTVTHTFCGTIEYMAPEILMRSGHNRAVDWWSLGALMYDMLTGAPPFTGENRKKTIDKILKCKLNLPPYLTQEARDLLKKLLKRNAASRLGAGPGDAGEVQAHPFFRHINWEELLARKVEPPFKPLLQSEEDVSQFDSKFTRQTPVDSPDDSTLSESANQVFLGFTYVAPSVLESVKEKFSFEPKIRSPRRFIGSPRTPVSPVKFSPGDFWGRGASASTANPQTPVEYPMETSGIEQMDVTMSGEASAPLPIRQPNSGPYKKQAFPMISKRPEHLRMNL
Procedure: as §1

NEK1 = NEK1 (Homo sapiens, UniProt Q96PY6); experiment: Kinase profiling (SelectScreen), ZLYTE; type: biochemical
Procedure: as §1

IGF1R = IGF1R (Homo sapiens, UniProt P08069); experiment: Kinase profiling (SelectScreen), ZLYTE; type: biochemical
Procedure: as §1

MET (cMet) = MET (cMet) (Homo sapiens, UniProt P08581); experiment: Kinase profiling (SelectScreen), ZLYTE; type: biochemical
Procedure: as §1

FGFR1 = FGFR1 (Homo sapiens, UniProt P11362); experiment: Kinase profiling (SelectScreen), ZLYTE; type: biochemical
FGFR1, sequence (P11362 22-822): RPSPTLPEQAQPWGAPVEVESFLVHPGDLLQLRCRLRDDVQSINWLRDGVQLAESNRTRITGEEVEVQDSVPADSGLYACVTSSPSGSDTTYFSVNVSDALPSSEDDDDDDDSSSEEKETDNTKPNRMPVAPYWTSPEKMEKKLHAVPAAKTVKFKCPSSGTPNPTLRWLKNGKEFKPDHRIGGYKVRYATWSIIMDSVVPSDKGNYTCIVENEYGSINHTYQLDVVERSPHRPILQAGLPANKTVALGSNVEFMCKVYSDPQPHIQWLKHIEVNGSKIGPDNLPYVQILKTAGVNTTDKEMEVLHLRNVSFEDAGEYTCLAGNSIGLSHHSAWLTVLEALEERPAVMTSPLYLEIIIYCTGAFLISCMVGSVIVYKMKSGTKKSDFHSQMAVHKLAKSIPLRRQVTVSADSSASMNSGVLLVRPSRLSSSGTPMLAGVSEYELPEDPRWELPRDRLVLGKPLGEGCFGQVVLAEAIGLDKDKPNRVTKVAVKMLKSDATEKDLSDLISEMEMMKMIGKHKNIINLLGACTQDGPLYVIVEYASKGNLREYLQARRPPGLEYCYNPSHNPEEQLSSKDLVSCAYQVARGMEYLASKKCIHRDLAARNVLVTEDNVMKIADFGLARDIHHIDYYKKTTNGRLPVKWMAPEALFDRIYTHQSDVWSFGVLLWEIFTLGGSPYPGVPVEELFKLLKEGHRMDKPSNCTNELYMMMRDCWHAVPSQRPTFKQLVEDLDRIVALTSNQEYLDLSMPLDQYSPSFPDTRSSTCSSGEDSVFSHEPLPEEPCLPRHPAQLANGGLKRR
Procedure: as §1

NTRK2 (TRKB) = NTRK2 (TRKB) (Homo sapiens, UniProt Q16620); experiment: Kinase profiling (SelectScreen), ZLYTE; type: biochemical
Procedure: as §1

PDGFRB (PDGFR beta) = PDGFRB (PDGFR beta) (Homo sapiens, UniProt P09619); experiment: Kinase profiling (SelectScreen), ZLYTE; type: biochemical
Procedure: as §1

IKBKB (IKK beta) = IKBKB (IKK beta) (Homo sapiens, UniProt O14920); experiment: Kinase profiling (SelectScreen), ZLYTE; type: biochemical
Procedure: as §1

PAK4 = PAK4 (Homo sapiens, UniProt O96013); experiment: Kinase profiling (SelectScreen), ZLYTE; type: biochemical
PAK4, sequence (O96013 whole entry): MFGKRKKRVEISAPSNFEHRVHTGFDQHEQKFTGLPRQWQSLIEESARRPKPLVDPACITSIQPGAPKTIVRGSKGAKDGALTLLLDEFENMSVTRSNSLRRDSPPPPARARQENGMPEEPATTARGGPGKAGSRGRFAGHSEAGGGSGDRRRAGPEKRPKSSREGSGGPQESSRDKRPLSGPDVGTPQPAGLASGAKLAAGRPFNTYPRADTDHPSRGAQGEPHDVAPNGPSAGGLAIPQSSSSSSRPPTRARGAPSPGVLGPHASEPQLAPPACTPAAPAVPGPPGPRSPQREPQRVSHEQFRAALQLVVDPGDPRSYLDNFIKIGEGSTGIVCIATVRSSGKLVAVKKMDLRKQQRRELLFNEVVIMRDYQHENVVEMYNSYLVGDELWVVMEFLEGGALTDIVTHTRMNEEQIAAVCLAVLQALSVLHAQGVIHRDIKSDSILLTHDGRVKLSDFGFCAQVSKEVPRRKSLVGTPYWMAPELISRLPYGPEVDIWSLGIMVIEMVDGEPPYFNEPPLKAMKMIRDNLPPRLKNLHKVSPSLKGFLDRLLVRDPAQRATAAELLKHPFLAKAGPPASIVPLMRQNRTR
Procedure: as §1

AKT1 (PKB alpha) = AKT1 (PKB alpha) (Homo sapiens, UniProt P31749); experiment: Kinase profiling (SelectScreen), ZLYTE; type: biochemical
AKT1 (PKB alpha), sequence (P31749 whole entry): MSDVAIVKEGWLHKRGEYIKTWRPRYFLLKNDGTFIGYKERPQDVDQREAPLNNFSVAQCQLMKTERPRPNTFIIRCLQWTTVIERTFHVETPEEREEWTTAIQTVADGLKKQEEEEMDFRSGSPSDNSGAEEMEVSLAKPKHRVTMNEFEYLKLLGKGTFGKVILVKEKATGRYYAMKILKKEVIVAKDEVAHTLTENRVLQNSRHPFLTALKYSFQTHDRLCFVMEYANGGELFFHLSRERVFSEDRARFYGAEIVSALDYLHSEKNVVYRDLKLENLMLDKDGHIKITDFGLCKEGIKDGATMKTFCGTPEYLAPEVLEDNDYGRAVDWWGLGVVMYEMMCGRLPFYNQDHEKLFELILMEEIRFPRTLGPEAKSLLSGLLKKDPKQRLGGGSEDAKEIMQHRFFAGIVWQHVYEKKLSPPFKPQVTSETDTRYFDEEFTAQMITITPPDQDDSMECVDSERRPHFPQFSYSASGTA
Procedure: as §1

MAPK8 (JNK1) = MAPK8 (JNK1) (Homo sapiens, UniProt P45983); experiment: Kinase profiling (SelectScreen), ZLYTE; type: biochemical; details: IA107 at 5 μM; ATP 100 μM
Procedure: as §1

MAPK1 (ERK2) = MAPK1 (ERK2) (Homo sapiens, UniProt P28482); experiment: Kinase profiling (SelectScreen), ZLYTE; type: biochemical
MAPK1 (ERK2), sequence (P28482 whole entry): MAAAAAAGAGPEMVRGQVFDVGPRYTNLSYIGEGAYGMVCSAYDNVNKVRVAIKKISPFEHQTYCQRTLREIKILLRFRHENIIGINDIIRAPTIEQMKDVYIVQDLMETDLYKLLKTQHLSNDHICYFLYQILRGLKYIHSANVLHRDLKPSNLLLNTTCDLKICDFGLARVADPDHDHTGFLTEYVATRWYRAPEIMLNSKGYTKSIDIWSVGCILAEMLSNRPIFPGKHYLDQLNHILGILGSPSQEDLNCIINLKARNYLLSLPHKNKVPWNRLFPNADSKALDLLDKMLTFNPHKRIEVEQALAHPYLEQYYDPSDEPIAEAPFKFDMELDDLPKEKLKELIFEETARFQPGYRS
Procedure: as §1

MAPK14 (p38 alpha) = MAPK14 (p38 alpha) (Homo sapiens, UniProt Q16539); experiment: Kinase profiling (SelectScreen), ZLYTE; type: biochemical; details: IA107 at 5 μM; ATP 100 μM
Procedure: as §1

PRKCB1 (PKC beta I) = PRKCB1 (PKC beta I) (Homo sapiens, UniProt P05771); experiment: Kinase profiling (SelectScreen), ZLYTE; type: biochemical
Procedure: as §1

[1] = tested on: IRE1α transcription level in HCT 116 cells; experiment: RT-qPCR of IRE1α transcription level, HCT 116; type: cell-based, human; details: HCT 116 cells
Procedure: A549 cells, HCT 116 cells, and HT-29 cells were collected and seeded in 6-well plates at a density of 5 × 10^5 cells per well and cultured overnight to attach, then treated with compound or DMSO for 2 h, then 0.5 μg/mL final concentration of tunicamycin (Tm, MP Biomedi, 0215002805) were added to induce the ER stress for 2 h. After treatment, total RNA was purified using an RNeasy mini kit (Qiagen, 74106). 500 ng of total RNA was used for reverse transcription using the High-Capacity cDNA Reverse Transcription Kits (Thermo Fisher, 4368814). cDNA was diluted 1: 5 using RNase-free water, and 1 μL CDNA was used for each qPCR reaction. The qPCR was performed using PowerUp™ SYBR™ Green Master Mix (Thermo Fisher, A25742) with 10 µL reaction volume using Bio-Rad CFX96 Real-Time PCR Detection System following the standard cycling mode (primer Tm ≥ 60 °C) on the manufacturer’s protocol. Data was analyzed using the 2^- ΔΔCt method. The primers used are listed in Supplementary Table S3. The inhibition % was calculated by using the equation: inhibition% = 100× (normalized Tm control - normalized of the sample)/(normalized Tm control - normalized DMSO control). Tm control: Cells treated with tunicamycin; DMSO control: Cells treated with DMSO only.

## Cc1c(CCC(=O)O)c2cc(Br)ccc2n1C(=O)c1ccccc1 [IA107]
EEF2K
  inhibition at 5 µM: 5%
SRC
  inhibition at 5 µM: 4%
AURKA (Aurora A)
  inhibition at 5 µM: 5%
AMPK A1/B1/G1
  inhibition at 5 µM: 9%
IKBKE (IKK epsilon)
  inhibition at 5 µM: 2%
TEK (Tie2)
  inhibition at 5 µM: 6%
MAP2K1 (MEK1)
  inhibition at 5 µM: 3%
BTK
  inhibition at 5 µM: 8%
CDK1/cyclin B
  inhibition at 5 µM: 4%
CSNK1G2 (CK1 gamma 2)
  inhibition at 5 µM: 6%
MAP2K6 (MKK6)
  inhibition at 5 µM: 2%
FRAP1 (mTOR)
  inhibition at 5 µM: 5%
EGFR (ErbB1)
  inhibition at 5 µM: 5%
PRKD1 (PKC mu)
  inhibition at 5 µM: 0%
SGKL (SGK3)
  inhibition at 5 µM: 1%
EPHB4
  inhibition at 5 µM: 3%
LCK
  inhibition at 5 µM: 8%
RPS6KB1 (p70S6K)
  inhibition at 5 µM: 3%
NEK1
  inhibition at 5 µM: 17%
IGF1R
  inhibition at 5 µM: 3%
MET (cMet)
  inhibition at 5 µM: 3%
FGFR1
  inhibition at 5 µM: 4%
NTRK2 (TRKB)
  inhibition at 5 µM: 5%
PDGFRB (PDGFR beta)
  inhibition at 5 µM: 0%
IKBKB (IKK beta)
  inhibition at 5 µM: 4%
PAK4
  inhibition at 5 µM: -3%
AKT1 (PKB alpha)
  inhibition at 5 µM: 0%
MAPK8 (JNK1)
  inhibition at 5 µM: -8%
MAPK1 (ERK2)
  inhibition at 5 µM: 2%
MAPK14 (p38 alpha)
  inhibition at 5 µM: 6%
PRKCB1 (PKC beta I)
  inhibition at 5 µM: 7%

## CCOC(=O)CCc1c(C)n(C(=O)c2ccccc2)c2ccc(Br)cc12 [IAPD1]
[1]
  effect on IRE1α transcription level: did not influence; also recorded: no obvious impact

From paper PMC12475274, “Harnessing indole scaffolds to identify small-molecule IRE1α inhibitors modulating XBP1 mRNA splicing” (Nature Communications, 2025)
